Literature values in patent publication US11344529B2, “Compositions and methods for the treatment of metabolic conditions” (Reven IP HoldCo LLC, priority 2017, dated 2022).

Columns and labels:
[1] = more than 500 postmenopausal women

CC(C)=CCC/C(C)=C/CC/C(C)=C/CC/C(C)=C/CC1=C(C)C(=O)c2ccccc2C1=O [Vitamin K2]
total cholesterol, lipid peroxidation, aortic ester cholesterol deposition, plasma factor X activity (compared to the control group): reduce total cholesterol levels, lipid peroxidation, ester cholesterol deposition in the aorta and factor X activity in plasma | atherosclerotic plaque progression in the aorta and pulmonary arteries (rabbits, 1-10 mg/kg daily for 10 weeks): inhibited the atherosclerotic plaque progression | association of intake with coronary calcification [1]: associated with the trend toward decreasing coronary calcification
